Measured values: paper PMC9106665 (Communications Biology, 2022)
Changes are numbered by the printed parent chain. Converted amounts (≈) assume the structure as drawn. Where two headings read alike, the source gives them in different places.

Columns and labels:
[1] = target: T1, E. coli DHFR (EcDHFR) (Escherichia coli, UniProt P0ABQ4); assay: biochemical
T1 construct: E. coli DHFR gene (UniProtKB:P0ABQ4) and dfrA1 gene (UniProtKB:A4GRC7) were synthesized and cloned in pET-41a (+) vector; made in house; host or cells: E. coli BL21(DE3)
Description: (§1) The assay was performed at room temperature using the Shimadzu UV/visible spectrophotometer. A standard reaction buffer contained 20 mM TES, pH 7.0, 50 mM KCl, 10 mM β-mercapthoethanol, 0.5 mM EDTA, and 1 mg/ml BSA. […] All measurements were performed in triplicate, from at least two independent experiments.

[2] = target: T2, DfrA5 (Escherichia coli, UniProt P11731); assay: biochemical; design: species or system E. coli
Description: as §1

[3] = target: T3, EcDHFR D27E (Escherichia coli, UniProt P0ABQ4, D27E); assay: Enzyme inhibition assay (NADPH oxidation, 340 nm); format: biochemical; conditions: for fold increase in Ki over EcDHFR: D27E substitution
T3 construct: using E. coli DHFR template previously synthesized by GeneScript; made in house; host or cells: E. coli BL21(DE3)
T3 sequence (P0ABQ4 1-159 D27E): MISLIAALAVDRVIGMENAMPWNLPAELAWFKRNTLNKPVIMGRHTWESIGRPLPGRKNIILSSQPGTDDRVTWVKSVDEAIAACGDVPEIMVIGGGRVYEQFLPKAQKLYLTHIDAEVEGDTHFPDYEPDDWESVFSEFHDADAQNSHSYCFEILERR
Description: as §1

[4] = target: T4, EcDHFR D27E/L28Q (Escherichia coli, UniProt P0ABQ4, D27E/L28Q); assay: Enzyme inhibition assay (NADPH oxidation, 340 nm); format: biochemical; conditions: for fold loss in affinities relative to EcDHFR: combinatorial mutant D27E/L28Q
T4 construct: using E. coli DHFR template previously synthesized by GeneScript; made in house; host or cells: E. coli BL21(DE3)
T4 sequence (P0ABQ4 1-159 D27E/L28Q): T3 sequence (P0ABQ4 1-159 D27E) with L28Q
Description: as §1

[5] = target: T5, EcDHFR L28Q (Escherichia coli, UniProt P0ABQ4, L28Q); assay: Enzyme inhibition assay (NADPH oxidation, 340 nm); format: biochemical
T5 construct: using E. coli DHFR template previously synthesized by GeneScript; made in house; host or cells: E. coli BL21(DE3)
T5 sequence (P0ABQ4 1-159 L28Q): T3 sequence (P0ABQ4 1-159 D27E) with E27D, L28Q
Description: as §1

[6] = system: DfrA1 and DfrA5; format: biochemical, E. coli; conditions: range over DfrA1 and DfrA5
Description: as §1

[7] = target: T6, EcDHFR (Escherichia coli, UniProt P0ABQ4); format: binding
T6 construct: E. coli DHFR gene (UniProtKB:P0ABQ4) and dfrA1 gene (UniProtKB:A4GRC7) were synthesized and cloned in pET-41a (+) vector; made in house; host or cells: E. coli BL21(DE3)
Description: (§2) In all, 200 µg of purified enzyme was preincubated for 18 h without and with a 10× molar excess of the ligand(s) (NADPH, TMP or PLA) in 20 mM Hepes 7.5, 100 mM KCl, 5% glycerol, ±2.0% DMSO and 2 mM DTT buffer. […] Changes in intrinsic fluorescence intensity (measured ratio of absorbance at 350 nm over 330 nm) from tryptophan residues were used to calculate derivatives using the evaluation features provided by the Tycho instrument.

[8] = target: T7, DfrA1 (Escherichia coli, UniProt P00382); format: binding, E. coli
T7 construct: dfrA1 gene (UniProtKB:A4GRC7) were synthesized and cloned in pET-41a (+) vector; made in house; host or cells: E. coli BL21(DE3)
T7 sequence (P00382 1-157): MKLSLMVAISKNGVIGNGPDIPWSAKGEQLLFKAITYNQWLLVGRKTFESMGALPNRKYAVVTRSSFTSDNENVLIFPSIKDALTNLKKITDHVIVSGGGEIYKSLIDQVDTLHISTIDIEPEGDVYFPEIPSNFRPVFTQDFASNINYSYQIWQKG
Description: as §2

[9] = system: E. coli BW25113; assay: microbe, parasite or virus in culture; format: cell-based; conditions: for Fold difference in MIC: BW25113 w/o SMX vs w/ SMX; for MIC: Escherichia coli, 80% inhibition of growth
Description: (§3) Preparation, handling of cultures and the antibiotic susceptibility testing was performed according to CLSI guidelines. […] The compounds at the highest concentrations alone and paired with Sulfamethoxazole (1:19 w/w ratio) were then added to the first well before being serially diluted (2-fold) throughout the plate, leaving the last well with broth only (negative growth control). Next, 50 μl of the inoculum was added to each well.

[10] = system: E. coli JW0451 acrB mutant strain; assay: microbe, parasite or virus in culture; format: cell-based; conditions: for Fold difference in MIC: BW25113 w/o SMX vs JW0451 w/o SMX; for MIC: w/o SMX, 80% inhibition of growth, 18 to 20 hours, 37°C
Description: as §3

[11] = system: E. coli BL21(DE3) strain overexpressing EcDHFR wt; assay: Antibacterial activity (MIC); format: cell-based; conditions: Escherichia coli
[12] = system: E. coli BL21(DE3) strain overexpressing DfrA1; assay: Antibacterial activity (MIC); format: cell-based; conditions: Escherichia coli
[13] = system: E. coli BL21(DE3) strain overexpressing DfrA5; assay: Antibacterial activity (MIC); format: cell-based; conditions: Escherichia coli
[14] = target: T2, DfrA5; format: binding, E. coli; design: E. coli dfrA5 gene (UniProtKB:A0A4Y6L037) was synthesized and cloned in pET-24a (+) vector with the same restriction sites; 6xHis tag (C); made in house; host or cells: E. coli BL21(DE3)
Description: as §2, with “instrument. The inflection temperature (Ti) as a marker of protein structural integrity was determined by the first derivative of the signal (ratio of 350 nm/330 nm).” for “instrument.”

[15] = remark limiting MST studies
[16] = binary complex, 10× molar excess of ligand
[17] = BW25113, w/o SMX, 18 to 20 hours, 37°C

Row | Compound | Ki [1] | Ki [2] | Ki [3] | fold increase in Ki over EcDHFR [3] | Ki [4] | fold loss in affinities relative to EcDHFR [4] | Ki [5] | fold loss of activity against DfrA1 and DfrA5 compared to EcDHFR [6] | Ti 1 [7, 16] | Ti 2 [7, 16] | Δ1 (Ti shift vs apo) [7, 16] | Δ2 (Ti shift vs apo) [7, 16] | Ti 1 ([7]; ternary complex, +NADPH) | Ti 2 ([7]; ternary complex, +NADPH) | Δ1 (Ti shift vs apo) ([7]; ternary complex, +NADPH) | Ti [8, 16] | Δ (Ti shift vs apo) [8, 16] | Ti ([8]; ternary complex, +NADPH) | Fold difference in MIC [9] | MIC ([9]; BW25113, w/ SMX (1:19)) | also measured
1 | CCc1nc(N)nc(N)c1C#CC(C)c1cc2c(c(-c3ccc(CN)cc3)c1)OCO2 (centres unmarked) [UCP1223] | 1.58 ± 0.26 nM | 16.8 ± 0.29 nM | 12.8 ± 0.56 nM | 8 fold | 187 ± 5.5 nM | 118 fold | 7.37 ± 0.72 nM | 10–14 fold | 68.5 ± 1.4 °C | 80.8 ± 0.2 °C | 18.9 °C | 20.6 °C | 78.9 ± 2.4 °C | 88.3 ± 0.5 °C | 29.3 °C | 58.5 ± 0.1 °C | 8.7 °C | 71.2 ± 3.1 °C | 32 | 0.625 µg/mL (≈ 1.5 µM) | MIC [9, 17]: 20 µg/mL (≈ 48.1 µM); Fold difference in MIC [10]: 32; MIC ([10]; Escherichia coli): 0.625 µg/mL (≈ 1.5 µM); MIC [10]: 1.25 µg/mL (≈ 3.01 µM); MIC ([11]; w/ SMX (1:19)): 1.25 µg/mL (≈ 3.01 µM); MIC ([11]; w/o SMX): 20 µg/mL (≈ 48.1 µM); MIC ([12]; w/ SMX (1:19)): 20 µg/mL (≈ 48.1 µM); MIC ([12]; w/o SMX): > 20 µg/mL; MIC ([13]; w/ SMX (1:19)): 10 µg/mL (≈ 24.1 µM); MIC ([13]; w/o SMX): > 20 µg/mL; Ti [14, 16]: 67.3 ± 1.0 °C; Δ (Ti shift vs apo) [14, 16]: 1.0 °C; Ti ([14]; ternary complex, +NADPH): 88.5 ± 0.2 °C
2 | CCc1nc(N)nc(N)c1C#CC(C)c1cc(-c2ccc(C(N)=O)cc2)ccc1Cl (centres unmarked) [UCP1228] | 2.73 ± 0.09 nM | 20.1 ± 0.39 nM | 11.8 ± 0.4 nM | 4 fold | 189 ± 5.36 nM | 69 fold | 10.5 ± 0.69 nM | 10–14 fold | 65.5 ± 4.6 °C | 76.5 ± 2.5 °C | 15.9 °C | 16.3 °C | 64.3 ± 0.1 °C | 75.7 ± 1.6 °C | 14.7 °C | 55.4 ± 1.7 °C | 5.6 °C | 66.5 ± 3.3 °C | 16 | 0.625 µg/mL (≈ 1.49 µM) | Δ2 (Ti shift vs apo) ([7]; ternary complex, +NADPH): 15.5 °C; Δ (Ti shift vs apo) ([8]; ternary complex, +NADPH): 16.7 °C; MIC [9, 17]: 10 µg/mL (≈ 23.8 µM); Fold difference in MIC [10]: 8; MIC ([10]; Escherichia coli): 1.25 µg/mL (≈ 2.98 µM); MIC [10]: 0.625 µg/mL (≈ 1.49 µM); MIC ([11]; w/o SMX): 20 µg/mL (≈ 47.6 µM); MIC ([12]; w/ SMX (1:19)): 20 µg/mL (≈ 47.6 µM); MIC ([12]; w/o SMX): > 20 µg/mL; MIC ([13]; w/ SMX (1:19)): 20 µg/mL (≈ 47.6 µM); MIC ([13]; w/o SMX): > 20 µg/mL; solubility [15]: low; Δ (Ti shift vs apo) [14, 16]: 3.7 °C; Ti ([14]; ternary complex, +NADPH): 77.3 ± 4.7 °C; Δ (Ti shift vs apo) ([14]; ternary complex, +NADPH): 11 °C
